Reference: patent publication US10329336B2, “Antimicrobial kinocidin compositions and methods of use” (LA Biomedical Research Institute at Harbor-UCLA Medical …, priority 2006, dated 2019)

Experiments:
[1] = system: Escherichia coli strain ML-35; assay: Ex vivo biomatrix assay in human whole blood, plasma and serum; format: cell-based
Description: FIG. 18A-B show antimicrobial efficacy of IL-8α in human blood and blood-derived matrices as compared with artificial media (MHB) at pH 5.5 and 7.2. […] The E. coli inocula (INOC) were 10^5 CFU/ml, and the threshold of sensitivity was considered 0.3 log 10 CFU/ml.
To assess the physiological relevance of the observed in vitro (solid and solution-phase) antimicrobial activity for IL-8 and IL-8α, we assessed the efficacy of IL-8α in the ex vivo biomatrix assay. This assay has been developed to assess antimicrobial polypeptide efficacy in complex human blood matrices. Antimicrobial activity of IL-8α in human whole blood and homologous plasma and serum fractions was assessed (Yeaman, M. R., Gank, K. D., Bayer, A. S., and Brass, E. P. (2002) Antimicrob Agents Chemother 46, 3883-3891). For biomatrix studies, the well-characterized Escherichia coli strain ML-35 was used as the target organism (Lehrer, R. I., Barton, A., Daher, K, A., Harwig, S. S., Ganz, T., and Selsted, M. E. (1989) J Clin Invest 84, 553-561). This strain is resistant to serum, ideal for use in assessing peptide antimicrobial activity in blood and blood-derived matrices (Yeaman, M. R., Gank, K. D., Bayer, A. S., and Brass, E. P. (2002) Antimicrob Agents Chemother 46, 3883-3891). Organisms were cultured to mid-logarithmic phase in brain-heart infusion broth (Difco Laboratories, Detroit, Mich.) at 37° C., washed, and resuspended in PBS (Irvine Scientific; pH 7.2). Inocula were quantified spectrophotometrically and validated by quantitative culture. Biomatrices were distributed in 85-l aliquots into 96-well microtiter plates (Corning Glass Works, Corning, N.Y.) Peptide (5l; concentration range 1.0-50.0 μg/ml) was added either simultaneously with the microorganism (10 μl; 10^5 CFU/ml), or after a 120 min pre-incubation period in the biomatrix. The mixtures were incubated with constant agitation for 2 h at 37° C. After incubation, aliquots were diluted and quantitatively cultured in triplicate onto blood agar. Surviving organisms were enumerated as CFU/ml. […]

C. albicans ATCC 36082 = assay: Solution-phase microbicidal assay; format: cell-based, Candida albicans
Experimental: One million CFU of the indicated microorganism per milliliter were incubated with peptide (0.00125-20.0 nmol/ml) in either MES (2.0 mM, pH 5.5) or PIPES (10.0 mM, pH 7.5) for one hour at 37° C. Surviving CFU were enumerated and are described as change in the initial log 10 CFU. ∘, S. aureus ATCC 27217; ●, S. typhimurium strain 5990s; □, C. albicans ATCC 36082. Data are means±SD (minimum n=2).
(§1) Briefly, the antimicrobial assays were performed against a panel of prototype human pathogens as previously detailed (Yoshimura, T., Matsushima, K., Tanaka, S., Robinson, E. A., Appella, E., Oppenheim, J. J. & Leonard, E. J. (1987) Proc Natl Acad Sci USA 84, 9233-7): Staphylococcus aureus (ATCC 27217; Gram-positive bacterium); Salmonella typhimurium (5996s; Gram-negative bacterium); and the fungus Candida albicans (ATCC 36082). Defensin HNP-1 was included in each assay as an internal control, and all assays were conducted a minimum of two independent times. Results of independent assays were analyzed using Wilcoxon Rank Sum analysis with Bonferroni correction for multiple comparisons.
To characterize IL-8's antimicrobial activity in more detail, a quantitative solution-phase assay was carried out at pH 5.5 and 7.5. Organisms were prepared and adjusted to 10^6 CFU/ml in PIPES or MES buffer as above but lacking agarose, and dispensed (5×10^4 CFU per 50 μl aliquot). Peptide (concentration range, 20-0.00125 nmol/ml) was introduced into the assay medium, and incubated for 1 hour at 37° C. After incubation, media were serially diluted and plated in triplicate for enumeration. […] IL-8 was also fungicidal for C. albicans at pH 7.5, with a 2-log reduction in surviving CFU over 1 hour at a concentration of 2.5 nmol/ml.

[2] = system: Staphylococcus aureus (ATCC 27217); assay: Solid-phase antimicrobial assay of kinocidins; format: cell-based; conditions: S. aureus (Gram-positive); pH 5.5 or 7.5, not separated; 0.5 nmol/well
Experimental: (§2) Peptides (0.5 nmol) were introduced into wells in agarose plates buffered with MES (2.0 mM, pH 5.5) or PIPES (10.0 mM, pH 7.5). Antimicrobial activity was assessed as the zone of complete (blue) or partial (red) inhibition around the well. Abbreviations are: Native IL-8 (IL-8); IL-8α, (α); IL-8γ, (γ); IL-8α+IL-8γ (α+γ); RANTES, (RAN); GRO-α, (GRO); MCP-1, (MCP); lymphotactin, (LYM); platelet factor-4, (PF-4); and HNP-1, (HNP). Histograms are means±SEM (minimum n=2).
as §1
(§3) For the Solid-Phase Assay, mid-logarithmic phase organisms were prepared, introduced into buffered agarose (PIPES [10 mM, pH 7.5] or MES [2.0 mM, pH 5.5]) to achieve final inocula of 10^6 CFU/ml, and poured into plates. Peptides (0.5 nmol/well [50 nmol/ml]) were added to wells in the seeded matrix, and incubated for 3h at 37° C. Nutrient overlay medium was applied, and assays incubated at 37° C. or 30° C. for bacteria or fungi, respectively. After 24h, zones of inhibition were measured, and results recorded as zones of complete or partial inhibition.

[3] = system: Candida albicans (ATCC 36082); assay: Solid-phase antimicrobial assay of kinocidins; format: cell-based; conditions: C. albicans; pH 5.5 or 7.5, not separated; 0.5 nmol/well
Experimental: as §2, §1, §3

[4] = system: Salmonella typhimurium (5996s); assay: Solid-phase antimicrobial assay of kinocidins; format: cell-based; conditions: S. typhimurium (Gram-negative); pH 5.5 or 7.5, not separated; 0.5 nmol/well
Experimental: as §2, §1, §3

Q: Which results are given for “KENWVQRVVEKFLKRAENS [IL-8α, synthetic α-helix domain of IL-8 (CXCL8)]”?
A: decrease in E. coli CFU ([1]; 10 μg/ml peptide, human blood and blood-derived matrices, 2 h at 37° C.): ≤ 5 log CFU/ml; antimicrobial efficacy in biomatrix ([1]; plasma fractions or after 2 hour preincubation): less activity; antimicrobial efficacy in biomatrix ([1]; whole blood and serum, co-incubation): Greatest efficacy; activity relative to native IL-8, by mass (C. albicans ATCC 36082; C. albicans, solution-phase): 10 fold; reduction in surviving C. albicans (C. albicans ATCC 36082; pH 5.5, 0.125 nmol/ml (1.0 μg/ml), 1 hour exposure): five; antimicrobial activity (zone of inhibition) [2]: virtually indistinguishable from that of the native molecule; antifungal activity (zone of inhibition) [3]: virtually indistinguishable from that of the native molecule; antimicrobial activity (zone of inhibition) [4]: virtually indistinguishable from that of the native molecule
